In US10139394B2, “Method for controlling cancer metastasis or cancer cell migration by modulating the cellular level of lysyl tRNA synthetase” (Medicinal Bioconvergence Research Center, priority 2008, dated 2018):

Tests used:
A549 cells = experiment: Cell migration assay in Transwell chamber; format: cell-based; conditions: purified KRS at different concentration in lower chamber, 6 hr, FIG. 25
Experimental: In FIG. 18, A549 cells were transfected with the indicated plasmids, incubated in the absence and presence of laminin and their effect on cell migration was determined by measuring the migrated cells in transwell chamber as described. The numbers of the cells passed through the membrane were counted and shown in each panel. The experiments were performed three times. In FIG. 19, the cells treated as above were used to determine MMP-2 activity and level by zymography and Western blotting, respectively. In FIG. 20, Breast carcinoma 4T-1 cells were transfected with the indicated siRNA and subcutaneously injected to the back of Balb/C mice. After 21 days, mouse lungs were isolated and tumor nodules over 1 mm in diameter were counted. In FIG. 21, two different 4T-1 cells stably expressing exogenously introduced KRS (KRS-1 and -2) were also inoculated as above and the tumor nodules were counted 30 days after injection. […]
FIGS. 24 to 27 show effect of intracellular and extracellular KRS on cell migration, protein synthesis and cell cycle. In FIG. 24, Migration of A549 cells incubated in the absence of laminin was determined was determined by measuring the migrated cells in Transwell chamber. […] After 6 hr of incubation, the migrant were counted. […] In FIG. 27, A549 cells transfected as indicated were fixed and stained with propidium iodide, and their cell cycle was determined by flow cytometry. […]

phosphorylation of KRS = experiment: Laminin-induced phosphorylation of Myc-KRS, immunoprecipitation and immunoblot with anti-p-Thr, -Ser, -Tyr antibodies; format: cell-based, human; conditions: Myc-KRS transfected A549 cells; FIG. 10
Experimental: In FIG. 7, A549 cells were treated with laminin (10 ug/ml) and the level of 67LR, 37LRP and KRS was determined by Western blotting at the indicated times. Hsp90 and Cadherin were used as markers for cytoplasm and membrane, respectively. In FIG. 8, A549 cells untreated or treated with laminin for 1 h were subjected to immunofluorescence staining with anti-67LR (MLuC5, Santacruz, sc-59732) (red) and -KRS antibodies (green). In FIG. 9, A549 cells were treated with U73122 (U), staurosporin (ST) and LY294002 (LY) that inhibit PLC-gamma, PKC and PI3K, respectively, for 3 hr, then with laminin for 1 hr and checked how these kinase inhibitors would affect the membrane and cytoplasmic level of 67LR and KRS. In FIG. 10, A549 cells were transfected with Myc-KRS and incubated for 24 h. The cells were treated with the indicated chemicals and then with laminin as above. Myc-KRS was immunoprecipitated, and immunoblotted with anti-p-Thr, -Ser, and -Tyr antibodies. In FIG. 11, A549 cells were transfected with Myc-KRS and cultivated for 24 hr. The transfectants were pre-treated with LY294002 for 3 hr and then treated with laminin for 1 h. Myc-KRS was immunoprecipitated and co-precipitation of 67LR was determined by Western blotting. […] EPRS (glutamyl-prolyl-tRNA synthetase) was immunoprecipitated with its specific antibody (AbCam), and co-immunoprecipitation of KRS was determined by Western blotting (upper). […]

[1] = test system: membrane translocation of KRS; experiment: Laminin-dependent membrane translocation of KRS and 67LR, cell fractionation and Western blotting; format: cell-based; conditions: A549 cells; inhibitor for 3 hr, then laminin for 1 hr; FIG. 9 upper
Experimental: In FIG. 7, A549 cells were treated with laminin (10 ug/ml) and the level of 67LR, 37LRP and KRS was determined by Western blotting at the indicated times. Hsp90 and Cadherin were used as markers for cytoplasm and membrane, respectively. In FIG. 8, A549 cells untreated or treated with laminin for 1 h were subjected to immunofluorescence staining with anti-67LR (MLuC5, Santacruz, sc-59732) (red) and -KRS antibodies (green). In FIG. 9, A549 cells were treated with U73122 (U), staurosporin (ST) and LY294002 (LY) that inhibit PLC-gamma, PKC and PI3K, respectively, for 3 hr, then with laminin for 1 hr and checked how these kinase inhibitors would affect the membrane and cytoplasmic level of 67LR and KRS. In FIG. 10, A549 cells were transfected with Myc-KRS and incubated for 24 h. The cells were treated with the indicated chemicals and then with laminin as above. Myc-KRS was immunoprecipitated, and immunoblotted with anti-p-Thr, -Ser, and -Tyr antibodies. In FIG. 11, A549 cells were transfected with Myc-KRS and cultivated for 24 hr. The transfectants were pre-treated with LY294002 for 3 hr and then treated with laminin for 1 h. Myc-KRS was immunoprecipitated and co-precipitation of 67LR was determined by Western blotting. IgG was used as a control for immunoprecipitation. In FIG. 12, A549 cells were cultivated in the absence and presence of laminin and LY294002 as indicated. EPRS (glutamyl-prolyl-tRNA synthetase) was immunoprecipitated with its specific antibody (AbCam), and co-immunoprecipitation of KRS was determined by Western blotting (upper). The immune-depleted supernatant (ID) were subjected to Western blottingting with anti-KRS and -EPRS antibodies.
The cells were lysed with 20 mM Tris-HCl (pH 7.4) buffer containing 150 mM NaCl, 0.5% TritonX-100, 0.1% SDS, and protease inhibitor. The protein extracts were incubated with normal IgG and protein G agarose for 2 hr and then centrifuged to remove nonspecific IgG binding proteins. […]

Row | Molecule | cell migration (chemotactic activity of extracellular KRS) (A549 cells) | laminin-induced phosphorylated KRS at threonine and serine in presence of inhibitor (phosphorylation of KRS) | Laminin-dependent increase of KRS and 67LR in the membrane fraction [1]
1 | purified KRS: purified human lysyl-tRNA synthetase protein added extracellularly | little affected | – | –
2 | CN[C@@H]1C[C@H]2O[C@@](C)([C@@H]1OC)n1c3ccccc3c3c4c(c5c6ccccc6n2c5c31)C(=O)NC4 [staurosporin, reference compound] | – | did not give any effect | still showed laminin-dependent induction of 67LRS
3 | COc1ccc2c(c1)CC[C@@H]1[C@@H]2CC[C@]2(C)[C@@H](NCCCCCCN3C(=O)C=CC3=O)CC[C@@H]12 [U73122] | – | – | still showed laminin-dependent induction of 67LRS
